Test results from PMC8006714 (Chemical Communications (Cambridge, England), 2021).
pIC50: −log10 of the molar value. “And” between values parts separate entries of the source, which are not always exact repeats. Identical values can stand only once. “Also recorded” adds a separate entry of the source. Like-named read-outs stand apart in the source and are kept apart here.

Columns and labels:
SARS-CoV-2 M^pro [1] = target: T1, SARS-CoV-2 M^pro (Severe acute respiratory syndrome coronavirus 2, UniProt P0DTD1); experiment: biochemical; type: biochemical; conditions: for inhibition at a fixed 20 μM inhibitor concentration: LOPAC and API library screens; for M^pro inhibition at single concentrations (in words): 20, 50 and 100 µM β-lactam, 30 min or 60 min preincubation (Fig. S17)
M^pro = test system: M^pro; design: method as in doi:10.1101/2020.05.28.120642; conditions: read-out: reported IC50; cited from earlier work
SARS-CoV-2 M^pro [2] = target: T1, SARS-CoV-2 M^pro; experiment: biochemical; type: biochemical
SARS-CoV-2 M^pro [3] = target: T1, SARS-CoV-2 M^pro; type: binding; conditions: for covalent modification of M^pro preincubated with N3 (active site selectivity): 1 μM M^pro preincubated with 3 μM N3, 20 μM inhibitor; for covalent modification of M^pro (protein observed SPE-MS): 20 μM inhibitor, 20 mM HEPES pH 7.5, 50 mM NaCl
[4] = 30 min preincubation, SPE-MS dose response
[5] = 60 min preincubation, SPE-MS dose response

SMILES	% Mpro inhibition at 20 µM (SARS-CoV-2 M^pro [1])	pIC50 (SARS-CoV-2 M^pro [2]; IC50 (SPE-MS))	covalent modification of M^pro preincubated with N3 (active site selectivity) (SARS-CoV-2 M^pro [3])	covalent modification of M^pro (protein observed SPE-MS) (SARS-CoV-2 M^pro [3]; 1 μM M^pro)	further results
CC(=O)OC[C@H]1O[C@@H]([S-])[C@H](OC(C)=O)[C@@H](OC(C)=O)[C@@H]1OC(C)=O.CCP(CC)CC.[Au+] [Auranofin]	100.0%				inhibition at a fixed 20 μM inhibitor concentration (SARS-CoV-2 M^pro [1]): ≥ 80%; pIC50 (M^pro): ~6.30
CC(=O)OCC1=C(C(=O)[O-])N2C(=O)[C@@H](NC(=O)CCC[C@@H](N)C(=O)[O-])[C@H]2SC1.[Zn+2] [Cephalosporin C zinc salt]	92.3%				Hill slope (SARS-CoV-2 M^pro [2]; 22 minutes preincubation, SPE-MS): 1.83; M^pro inhibition (in words) (SARS-CoV-2 M^pro [1]): inhibited
CC1(C)[C@H](C(=O)OCc2ccccc2)N2C(=O)[C@@H](NC(=O)COc3ccccc3)[C@H]2S1(=O)=O [Compound 1, penicillin V sulfone C3 benzyl ester]		~5.82 and 5.82 and 6.05	no reaction	A single molecule 1 covalently modifies M^pro; also recorded: Covalent modification was observed	Hill slope (SARS-CoV-2 M^pro [2]; [4]): 1.4 ± 0.4; Hill slope (SARS-CoV-2 M^pro [2]; [5]): 1.6 ± 0.2; M^pro inhibition at single concentrations (in words) (SARS-CoV-2 M^pro [1]): moderate inhibition
COC1(NC(=O)Cc2ccccc2)C(=O)N2C1[S+]([O-])C(C)(C)C2C(=O)OCc1ccc([N+](=O)[O-])cc1 (stereo not shown) [Compound 2, C6-methoxy penicillin G sulfoxide C3 p-nitrobenzyl ester]		~5.46 and 5.46 and 5.68	Minor further modification	does not efficiently modify M^pro through covalent reaction	Hill slope (SARS-CoV-2 M^pro [2]; [4]): 2.2 ± 0.1; Hill slope (SARS-CoV-2 M^pro [2]; [5]): 2.1 ± 0.1; M^pro inhibition at single concentrations (in words) (SARS-CoV-2 M^pro [1]): moderate inhibition; extent of covalent modification of M^pro (SARS-CoV-2 M^pro [3]; 1 μM M^pro, 20 μM β-lactam): < 10%
Cc1cc(C(=O)N[C@@H](C)C(=O)N[C@H](C(=O)N[C@@H](CC(C)C)C(=O)N[C@H](/C=C/C(=O)OCc2ccccc2)C[C@@H]2CCNC2=O)C(C)C)no1 [Compound N3]		7.40 and 7.52	one major binding event	modifies M^pro in a covalent manner; also recorded: more than one reaction with the Mpro monomer; also recorded: predominantly (but not exclusively) a single N3 adduct was observed	
Oc1ccc2ccccc2c1SSc1c(O)ccc2ccccc12 [IPA-3, 1,1’-Disulfanediyldinaphthalen-2-ol]		~7.00 and 7.15	multiple adducts observed with unmodified M^pro were diminished; also recorded: does not (at least substantially) covalently modify Mpro	reacts with Mpro at multiple positions	inhibition at a fixed 20 μM inhibitor concentration (SARS-CoV-2 M^pro [1]): ≥ 80%; inhibition at 20 µM (SARS-CoV-2 M^pro [1]; read-out: % Mpro inhibition at 20 µM): 99.1%
Cc1ccc(S(=O)(=O)N[C@@H](CCCCN)C(=O)CCl)cc1.Cl [TLCK, Nα-p-Toluenesulfonyl-L-lysine chloromethyl ketone hydrochloride]	88.3%		does not react with TLCK	covalently reacts with M pro	covalent modification of M^pro preincubated with N3 (active site selectivity) (SARS-CoV-2 M^pro [3]; listed as Nα-p-toluenesulfonyl-L-lysine chloromethyl ketone): substantial covalent modification was no longer observed
Cc1ccc(S(=O)(=O)N[C@@H](Cc2ccccc2)C(=O)CCl)cc1 [TPCK, N-p-Toluenesulfonyl-L-phenylalanine chloromethyl ketone]	94.1%		does not covalently modify M^pro in the presence of N3; also recorded: substantial covalent modification was no longer observed; also recorded: does not react with TPCK	modifies M^pro in a covalent manner; also recorded: covalently reacts with Mpro	pIC50 (SARS-CoV-2 M^pro [2]; pH 7.5, read-out: IC50 (SPE-MS)): ~6.10 and 6.08
[Cl-].[Cl-].[Zn+2] [ZnCl2]					Hill slope (SARS-CoV-2 M^pro [2]): 2.23 and 2.07; pIC50 (SARS-CoV-2 M^pro [2]; read-out: IC50): 6.47 and 6.43
